Measurements reported in the supplement of paper PMC10307832.

Experiments:
Assay in all cases: relative viability (nuclei count vs DMSO), 5 days (fraction); higher = more cells survive
Alpelisib + Lapatinib = compound: Cc1nc(NC(=O)N2CCC[C@H]2C(N)=O)sc1-c1ccnc(C(C)(C)C(F)(F)F)c1 [Alpelisib] + CS(=O)(=O)CCNCc1ccc(-c2ccc3ncnc(Nc4ccc(OCc5cccc(F)c5)c(Cl)c4)c3c2)o1 [Lapatinib] (partner 2 µM)
In short: (§1)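 Lung cancer cell lines in 1536-well plates got either a single drug or a fixed anchor-drug dose together with five library-drug doses (not always all listed) in √10 steps, by pin tool, on the day after seeding. Nuclei were counted after 5 days, and relative viability is the treated-to-vehicle ratio of nuclei counts. Values are medians of duplicate plates.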

OSI-027 + Bortezomib = compound: COc1cccc2cc(-c3nc([C@H]4CC[C@H](C(=O)O)CC4)n4ncnc(N)c34)[nH]c12 [OSI-027] + CC(C)C[C@H](NC(=O)[C@H](Cc1ccccc1)NC(=O)c1cnccn1)B(O)O [Bortezomib] (partner 0.002 µM)
In short: as §1

Vemurafenib + Navitoclax = compound: CCCS(=O)(=O)Nc1ccc(F)c(C(=O)c2c[nH]c3ncc(-c4ccc(Cl)cc4)cc23)c1F [Vemurafenib] + CC1(C)CCC(c2ccc(Cl)cc2)=C(CN2CCN(c3ccc(C(=O)NS(=O)(=O)c4ccc(N[C@H](CCN5CCOCC5)CSc5ccccc5)c(S(=O)(=O)C(F)(F)F)c4)cc3)CC2)C1 [Navitoclax] (partner 0.5 µM)
In short: as §1

OSI-027 + AZD7762 = compound: COc1cccc2cc(-c3nc([C@H]4CC[C@H](C(=O)O)CC4)n4ncnc(N)c34)[nH]c12 [OSI-027] + NC(=O)Nc1cc(-c2cccc(F)c2)sc1C(=O)N[C@H]1CCCNC1 [AZD7762] (partner 0.2 µM)
In short: as §1

Cell Line	relative viability (Alpelisib + Lapatinib; first compound 0.04 µM)	relative viability (Alpelisib + Lapatinib; first compound 0.1265 µM)	relative viability (Alpelisib + Lapatinib; first compound 0.4 µM)	relative viability (Alpelisib + Lapatinib; first compound 1.265 µM)	relative viability (Alpelisib + Lapatinib; first compound 4 µM)	relative viability (OSI-027 + Bortezomib; first compound 0.01 µM)	relative viability (OSI-027 + Bortezomib; first compound 0.03162 µM)	relative viability (OSI-027 + Bortezomib; first compound 0.1 µM)	relative viability (OSI-027 + Bortezomib; first compound 0.3162 µM)	relative viability (OSI-027 + Bortezomib; first compound 1 µM)	relative viability (Vemurafenib + Navitoclax; first compound 0.03162 µM)	relative viability (Vemurafenib + Navitoclax; first compound 0.1 µM)	relative viability (Vemurafenib + Navitoclax; first compound 0.3162 µM)	relative viability (Vemurafenib + Navitoclax; first compound 1 µM)	relative viability (OSI-027 + AZD7762; first compound 0.01 µM)	relative viability (OSI-027 + AZD7762; first compound 0.03162 µM)	relative viability (OSI-027 + AZD7762; first compound 0.1 µM)	relative viability (OSI-027 + AZD7762; first compound 0.3162 µM)	relative viability (OSI-027 + AZD7762; first compound 1 µM)
NCI-H661	0.471	0.475	0.525	0.383	0.361	0.811	0.734	0.802	0.666	0.395	–	–	–	–	–	–	–	–	–
NCI-H1299	0.977	0.981	0.997	1.03	1.02	1.09	1.03	1.06	1.08	1.1	1.03	1.03	0.976	1.03	–	–	–	–	–
NCI-H1395	0.88	0.909	1.15	0.75	0.921	–	–	–	–	–	1.37	0.999	–	1.18	0.316	0.398	0.396	0.352	0.386
NCI-H1563	0.873	0.941	1.03	0.857	0.868	0.822	0.872	0.781	0.741	0.722	–	–	–	–	–	–	–	–	–
NCI-H1648	–	–	–	–	–	–	–	–	–	–	–	–	–	–	0.813	0.572	–	0.705	0.667
NCI-H1650	0.718	0.738	0.806	0.62	0.794	0.171	0.195	0.206	0.201	0.19	1.12	–	1.18	1.15	–	–	–	–	–
